Test results as given in ChEMBL document CHEMBL3259716, “The evolution of amidine-based brain penetrant BACE1 inhibitors” (Bioorg Med Chem Lett, 2014).

What was measured:
[1] = Drug uptake in Sprague-Dawley rat brain at 10 mg/kg, po measured at 6 hrs by LC-MS/MS analysis; type: ADME, organism-based; parameters: dose 10 mg/kg, route oral; conditions: read-out: Drug uptake
[2] = Plasma concentration in Sprague-Dawley rat at 10 mg/kg, po measured at 6 hrs by LC-MS/MS analysis; type: ADME, organism-based; parameters: dose 10 mg/kg, route oral
Nucleic Acid = experiment: Ratio of drug level in brain to plasma in Sprague-Dawley rat at 10 mg/kg, po measured at 6 hrs; type: ADME, organism-based; parameters: dose 10 mg/kg, route oral
[3] = Dissociation constant, pKa of the compound; type: physicochemical

| concentration at 6 h [1] [nM] | concentration at 6 h [2] [nM] | BPR (Nucleic Acid) | pKa [3] | Structure (SMILES) |
| --- | --- | --- | --- | --- |
| 845 | 229 | 3.7 | – | NC1=N[C@@]2(c3cc(NC(=O)c4cnc(CF)cn4)ccc3F)CO[C@H](C(F)(F)F)[C@H]2CS1 |
| – | – | – | 6.5 | NC1=N[C@](c2ccc(OC(F)F)cc2)(c2cccc(OCCF)c2)C2=NCC(F)(F)CN12 |
| 570 | 570 | 0.7 | – | NC1=N[C@@]2(c3cc(NC(=O)c4cnc(C(F)F)cn4)ccc3F)CO[C@H](CF)[C@H]2CS1 |
| – | – | – | 5.3 | COc1cccc(-c2cccc([C@@]3(c4ccncc4)N=C(N)N4CC(F)(F)CN=C43)c2)c1F |
